Experimental data from publication PMC6832524, “A Nature-Inspired Design Yields a New Class of Steroids Against Trypanosomatids” (Molecules, 2019).

Columns and labels:
[1] = system: T. cruzi epimastigotes, Tulahuen 2 strain (genotype TcVI); experiment: in vitro anti-T. cruzi activity, epimastigote growth (absorbance 600 nm); assay type: cell-based, Trypanosoma cruzi; settings: Trypanosoma cruzi, TULAHUEN; epimastigotes; maximum dose tested 25 µM; read-out: IC50 ± %SD (µM) T. cruzi
Description: Control parasites were cultivated in 0.4% DMSO. Each concentration of the compound was evaluated in duplicate.

[2] = system: L. amazonensis (promastigotes); experiment: in vitro anti-Leishmania activity, promastigotes, resazurin; assay type: cell-based; settings: maximum dose tested 25 µM, read-out: IC50 ± %SD (µM) L. amazonensis
[3] = system: L. infantum (MHOM/BR/2002/LPC-RPV) promastigotes; experiment: as above; assay type: cell-based, Leishmania infantum; settings: Leishmania infantum; promastigotes; maximum dose tested 25 µM; read-out: IC50 ± %SD (µM) L. infantum
[4] = system: L. infantum .uy (parasites isolated from two dogs in the first Leishmaniasis outbreak in Uruguay); experiment: in vitro activity against L. infantum isolated from dogs in Uruguay; assay type: cell-based, Leishmania infantum; settings: Leishmania infantum, read-out: IC50 ± %SD (µM) L. infantum .uy
Description: Compounds were dissolved in dimethylsulfoxide (DMSO).
For assessing the amastigote form of all Leishmania strains were cultured in the RPMI described above. Parasites were seeded at 1 × 10^6 cells/mL and at each time point counted at least five times to obtain a growth curve. […] Control conditions of parasites without drug (100% growth) and medium without parasites were included. After 72 h at 28 °C parasite viability was determined by the resazurin method described. Infection with L. infantum. THP-1 monocytes (ATCC®TIB-202™) were grown following ATCC recommendations and seeded at 30,000 cells/well onto 18-mm round glass coverslips in 12 wells. For stimulation cells were incubated with 100 nM of PMA for 48 h, PMA was washed and cells left with growth media for 24 h more after incubation with parasites. 30,000 parasites/well were added and left to interact. After 48 h, coverslips were washed with PBS, fixed with 95% (v/v) ethanol, and stained with Fluoroshield™ with DAPI (Sigma). Infectivity was assessed considering invasion and replication capacity counting infected cells and parasites per infected cell, respectively. Infectivity index calculation = (% of infected cells X (amastigotes per cell))/number of total counted cells. Image acquisition was made with a Leica TCS-SP5 laser scanning confocal microscope (Leica Microsystems GmbH, Wetzlar, Germany) using the LASAF v.2 software (Leica Microsystems, Wetzlar, Germany) and observed using a 356 nm laser excitation line and an emission bandwidth from 461 nm under a 20× water immersion objective. Further image analysis, including quantitation and processing of figures were made using Fiji (http://fiji.sc/).

[5] = system: L. infantum amastigotes in human macrophages (THP-1); experiment: human macrophages infected with L. infantum (amastigotes), infectivity index; assay type: cell-based; settings: Leishmania infantum, two strains of L. infantum (reference strain and isolated from dogs)
[6] = system: J774.1 murine macrophages; experiment: nonspecific cytotoxicity on mammalian cells, MTT; assay type: cell-based
[7] = system: primary culture of macrophages from mice bone marrow; experiment: cytotoxicity on primary culture of macrophages, MTT; assay type: cell-based; settings: 25 µM, 48 h, compared with J774.1
[8] = system: T. cruzi blood trypomastigotes of the Y strain; experiment: in vivo anti-T. cruzi study (acute Chagas model); design: species or system Trypanosoma cruzi; settings: BALB/c mice, 50 mg/kg/day oral for 14 days
[9] = system: L. amazonensis (IFLA/BR/1967/PH8); experiment: in vivo anti-Leishmania study in cutaneous mice model; design: species or system Leishmania amazonensis; settings: BALB/c mice, 50 mg/kg oral
[10] = liver fraction stability study (TLC); assay type: in vitro ADME; settings: rat liver fractions, 400 µM, 37 °C, 4 h
solubility (qualitative) = assay type: physicochemical
[11] = system: promastigotes L. braziliensis/ L. amazonensis; experiment: in vitro anti-Leishmania activity, promastigotes (Table 1S); assay type: cell-based; settings: read-out: IC50 ± %SD (µM) promastigotes L. braziliensis/ L. amazonensis
[12] = in vivo acute oral toxicity (OECD up and down); settings: male, B6D2F1, mouse, 2000 mg/kg
Description: Briefly, healthy young adult male B6D2F1 mice (30 days old, 25 to 30 g) were used in this study. Initially, the compound was dissolved in the vehicle described above (3.4 section) and was administered at 2000 mg/kg, by orogastric cannula, to one animal. The animal was fasted, maintained, and observed for 48 h. If the mouse survives, another animal receives the same dose, and 48 h later, a third animal. If there are no toxicity signs the experiment is finished 14 days after administration, with the euthanasia of the animals according to the OECD guidelines. Observations of the general status of the organs were performed after sacrifice.

[13] = system: L. infantum, L. braziliensis, L. amazonensis promastigotes and T. cruzi epimastigotes; experiment: phenotypic screening against parasites in vitro (overall statements)
Description: For the in vitro anti-T. cruzi activity, we used epimastigotes of the Tulahuen 2 strain (genotype TcVI) grown in an axenic milieu (BHI-Tryptose). Cells from a 5–7-days-old culture were inoculated in fresh culture milieu to give an initial concentration of 10^6 cells/mL. The absorbance at 600 nm of the cells in culture was measured every day. […] Control parasites were cultivated in 0.4% DMSO. Each concentration of the compound was evaluated in duplicate. At five days, the absorbance of the culture was measured and compared to the control and the IC50 values calculated for each compound using OriginLab8.5® sigmoidal regression.

SMILES: C/C(=N\NC(N)=S)[C@H]1CC[C@H]2[C@@H]3CC=C4CC(O)CC[C@]4(C)[C@H]3CC[C@]12C (stereo partly drawn) [Compound 8, 1-(3β-Hydroxy-pregn-5-ene-20E-ylidene)thiosemicarbazone]
- IC50 [1]: 1.2 ± 0.3 µM
- IC50 [2]: < 22 µM
- IC50 [3]: 0.2 ± 0.1 µM
- IC50 [4]: 0.2 ± 0.1 µM
- IC50 [5]: < 200 nM
- IC50 ([6]; Mus musculus, J774.1, 48 h, MTT, read-out: IC50 ± SD (µM) Murine Macrophages): 50 ± 3 µM
- SI J774.1/L. amazonensis ([6]; ratio IC50 murine macrophages / IC50 L. amazonensis promastigotes): >2
- SI J774.1/L. infantum ([6]; ratio IC50 murine macrophages / IC50 L. infantum promastigotes): 250
- SI J774.1/T. cruzi ([6]; ratio IC50 murine macrophages / IC50 T. cruzi epimastigotes): 42
- cytotoxicity on primary culture of macrophages, in words [7]: the same results were obtained
- % of Survivals (Chagas) [8]: 100%
- Number of Parasites (Chagas) ([8]; peak of parasitemia): (0.14 ± 0.03) × 10^6 per mL blood
- % of Reduction (Chagas) ([8]; reduction of parasitemia vs control): 62%
- % of Reduction (Leishmaniasis) [9]: 27%
- % of Survivals (Leishmaniasis) [9]: 100%
- Number of Parasites (Leishmaniasis) ([9]; parasites in the lesion at the end of the experiment): (21 ± 4) × 10^6
- metabolic stability in cytosolic and microsomal liver fraction [10]: stable
- solubility in water, in words (solubility (qualitative)): poor solubility in water
- IC50 [11]: < 22 µM
- LD50 at 14 days [12]: > 2000 mg/kg
- IC50 ([13]; Trypanosoma cruzi, read-out: IC50 in vitro (abstract)): 200 nM
- times more active than Miltefosine in vitro ([13]; against Leishmania): five times more active
- times more active than Nfx and Bnz in vitro ([13]; against T. cruzi): 35
- antiparasitic activity (active: IC50<25 µM), in words ([13]; all parasites/strains tested, maximum dose 25 µM): consistently active against all strains
